29 compounds from patent publication US20090105349A1, “ANDROGEN MODULATORS” (WARNER-LAMBERT COMPANY LLC, priority 2004, published 2009) can be followed below.

As usually defined, the IC50 is the midpoint of a concentration-inhibition curve.

Numbering of substitutions follows the chain as printed.

The first experiment addresses T1, androgen receptor in MDA-MB453-MMTV clone 54-19 cells (Homo sapiens, UniProt P10275).
T1 sequence (P10275 1-920 Q868H): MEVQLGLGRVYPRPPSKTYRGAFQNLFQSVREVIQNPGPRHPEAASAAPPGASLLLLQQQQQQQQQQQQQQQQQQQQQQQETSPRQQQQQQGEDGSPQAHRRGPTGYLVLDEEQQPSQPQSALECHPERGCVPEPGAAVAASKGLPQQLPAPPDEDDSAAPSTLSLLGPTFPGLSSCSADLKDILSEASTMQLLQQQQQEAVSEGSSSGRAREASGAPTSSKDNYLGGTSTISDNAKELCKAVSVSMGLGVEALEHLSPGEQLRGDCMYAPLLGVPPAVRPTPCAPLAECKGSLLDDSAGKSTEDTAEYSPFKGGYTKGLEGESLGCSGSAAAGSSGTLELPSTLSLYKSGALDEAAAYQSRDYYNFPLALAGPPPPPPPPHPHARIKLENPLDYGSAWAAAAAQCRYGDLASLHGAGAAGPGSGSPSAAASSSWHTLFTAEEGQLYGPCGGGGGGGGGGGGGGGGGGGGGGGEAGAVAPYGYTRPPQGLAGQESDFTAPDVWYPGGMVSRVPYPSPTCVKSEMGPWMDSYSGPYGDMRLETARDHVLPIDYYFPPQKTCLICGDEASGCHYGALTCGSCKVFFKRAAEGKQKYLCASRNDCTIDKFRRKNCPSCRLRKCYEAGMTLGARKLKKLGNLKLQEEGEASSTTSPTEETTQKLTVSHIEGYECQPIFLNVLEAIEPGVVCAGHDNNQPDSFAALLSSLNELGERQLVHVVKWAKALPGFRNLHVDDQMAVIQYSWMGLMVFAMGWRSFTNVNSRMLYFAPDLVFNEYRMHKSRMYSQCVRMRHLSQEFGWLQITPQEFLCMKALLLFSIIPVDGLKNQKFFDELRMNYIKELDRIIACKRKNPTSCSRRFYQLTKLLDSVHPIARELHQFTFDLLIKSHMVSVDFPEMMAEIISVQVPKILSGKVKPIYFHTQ
Briefly: AR antagonist cell assay (MMTV-luciferase reporter). It counts as cell-based. Conditions: MDA-MB453-MMTV clone 54-19, inhibition of DHT induced luciferase, 17 hr; mean of multiple tests; read-out: AR Cell IC50. Here is the method: The compounds ability to antagonize the effects of androgen on the androgen receptor were determined in a whole cell assay as described immediately below.
This cell line is a stable transfected cell line with MDA-MB453 cell background (a human breast tumor cell line expressing androgen receptor). A MMTV minimal promoter containing ARE was first cloned in front of a firefly luciferase reporter gene. Then the cascade was cloned into transfection vector pUV120puro. […] Puromycin resistant stable cell line was selected.
Plating medium: DMEM (phenol red free), 10% charcoal treated HyClone serum, 1% L-glutamine
Assay medium: DMEM (phenol red free), 1% charcoal treated HyClone serum, 1% L-glutamine, and 1% penicillin/streptomycin
Assay procedure: • 1. Cells are maintained in culture medium, splitting cells when they reach 80-90% confluence • 2. To test compounds, 10,000 cells/well are plated to opaque 96 cell culture plate in 100 ul/well plating medium, culture for overnight at 37° C. in cell culture incubator • 3. […] Add 10 ul/well freshly prepared DHT (final concentration at […]) to each well, incubate at 37° C. for 17 hr (overnight) • 5.
The results are reported as the mean of multiple tests as described below (the numbers of tests are indicated in the footnote). N.D. denotes that the compound was not tested.
(In general: In a reporter assay the amount or activity of a reporter protein is the signal.)
For the compound `CCc1ccccc1Oc1ccc(C#N)cc1Cl` [Example 23, 3-Chloro-(2-ethyl-phenoxy)-benzonitrile], the IC50 is above 1000 nM.

The same experiment, now with this note: read-out: AR Cell IC50; MDA-MB453-MMTV clone 54-19, inhibition of DHT induced luciferase, 17 hr; mean of multiple tests.
Turning to `COc1cccc(OC)c1Oc1ccc(C#N)c(Cl)c1` [Example 38, 2-Chloro-4-(2,6-dimethoxy-phenoxy)-benzonitrile], the IC50 is 19 nM.

The target of another experiment is T2, hAR (human androgen receptor) (Homo sapiens, UniProt P10275).
T2 construct: made in house; host or cells: baculovirus/Sf9 insect cells (crude extract)
T2 sequence (P10275 1-920): T1 sequence (P10275 1-920 Q868H) with H868Q
Briefly: Competitive hAR binding assay with 3H-DHT tracer.
Conditions: not given
Here is the method: The description below describes how the assay was carried out.
Competitive binding analysis was performed on baculovirus/Sf9 generated hAR extracts in the presence or absence of different concentrations of test agent and a fixed concentration of ^3H-dihydrotestosterone (3H-DHT) as tracer. […] Subsequently, the binding reactions are washed three times to completely remove excess unbound ^3H-DHT. hAR bound ^3H-DHT levels are determined in the presence of compounds (i.e. competitive binding) and compared to levels bound when no competitor is present (i.e. maximum binding). Compound binding affinity to the hAR is expressed as the concentration of compound at which one half of the maximum binding is inhibited.
Consider `Cc1ccc(F)c(Oc2ccc(C#N)cc2Cl)c1F` [Example 6, 3-Chloro-(2,6-difluro-5-methyl-phenoxy)benzonitrile], for which the IC50 came out at 59 nM.

For `CC(N)c1cc(F)ccc1Oc1ccc(C#N)c(C(F)(F)F)c1` (stereo not shown) [Example 122, 4-[2-(1-aminoethyl)-4-fluoro-phenoxy]-2-trifluoromethyl-benzonitrile], the IC50 is 2 nM.

Regarding `CCOc1ccccc1Oc1ccc(C#N)c(Cl)c1` [Example 70, 2-Chloro-4-(2-ethoxy-phenoxy)-benzonitrile], the half-inhibitory concentration (IC50) was determined as 19 nM.

The same experiment, now with this note: baculovirus/Sf9 hAR extract, 1 nM 3H-DHT, one hour at 4° C; mean of multiple tests; read-out: AR Binding IC50.
`CCc1ccccc1Oc1ccc(C#N)cc1Cl` [Example 23, 3-Chloro-(2-ethyl-phenoxy)-benzonitrile]: the IC50 stood at 227 nM.

Take `COc1cccc(OC)c1Oc1ccc(C#N)c(Cl)c1` [Example 38, 2-Chloro-4-(2,6-dimethoxy-phenoxy)-benzonitrile]: the IC50 came to 249 nM.

As to `CCN(CC)C(=O)c1ccccc1Oc1ccc(C#N)cc1Cl` [Example 18, 2-(2-Chloro-4-cyano-phenoxy)-N,N-diethyl-benzamide], the IC50 was determined as 402 nM.

In the case of `CC(C)(CO)CNC(=O)c1ccccc1Oc1ccc(C#N)c(C(F)(F)F)c1` [Example 114, 2-(4-Cyano-3-trifluoromethyl-phenoxy)-N-(3-hydroxy-2,2-dimethyl-propyl)-benzamide], the IC50 was 402 nM.

Turning to `Cc1ccc(Oc2ccc(C#N)cc2Cl)c(C)c1` [Example 21, 3-Chloro-4-(2,4-dimethyl-phenoxy)-benzonitrile], the IC50 was 263 nM.

For `Cc1ccc(C(C)C)c(Oc2ccc(C#N)cc2Cl)c1` [Example 14, 3-Chloro-4-(2-isopropyl-5-methyl-phenoxy)-benzonitrile], the IC50 was 375 nM.

As to `C[C@H](O)CNC(=O)c1ccccc1Oc1ccc(C#N)c(C(F)(F)F)c1` [Example 113, 2-(4-Cyano-3-trifluoromethyl-phenoxy)-N-(2-hydroxy-propyl)-benzamide], the IC50 is 353 nM.

In the case of `CCSc1ccccc1Oc1ccc(C#N)cc1Cl` [Example 1, 3-Chloro-4-(2-ethylsulfanyl-phenoxy)-benzonitrile], the IC50 worked out at 281 nM.

`N#Cc1ccc(Oc2ccc3c(c2)CCC3)cc1Cl` [Example 43, 2-Chloro-4-(indan-5-yloxy)-benzonitrile]: the IC50 is 439 nM.

Take `C=CCc1cccc(C)c1Oc1ccc(C#N)cc1Cl` [Example 11, 4-(2-Allyl-6-methyl-phenoxy)-3-chloro-benzonitrile]: the IC50 came out at 242 nM.

With `Cc1ccc(C)c(Oc2ccc(C#N)cc2Cl)c1` [Example 9, 3-Chloro-4-(2,5-dimethyl-phenoxy)-benzonitrile], the IC50 stood at 356 nM.

Regarding `CCN(CC)Cc1c(C)ccc(C)c1Oc1ccc(C#N)c(C(F)(F)F)c1` [Example 89, 4-(2-Diethylaminomethyl-3,6-dimethyl-phenoxy)-2-trifluoromethyl-benzonitrile], the IC50 was found to be 255 nM.

`Cc1cccc(Oc2ccc(C#N)cc2Cl)c1` [Example 28, 3-Chloro-4-m-tolyloxy-benzonitrile]: the IC50 amounted to 412 nM.

`Cc1ccc(Oc2ccc(C#N)c(Cl)c2)c(C(C)(C)C)c1` [Example 73, 4-(2-tert-Butyl-4-methyl-phenoxy)-2-chloro-benzonitrile]: the IC50 amounted to 253 nM.

In the case of `N#Cc1ccc(Oc2cccc3ccccc23)c(Cl)c1` [Example 72, 3-Chloro-4-(naphthalen-1-yloxy)-benzonitrile], the IC50 came to 478 nM.

In the case of `CCOC(=O)c1ccc(Oc2ccc(C#N)c(Cl)c2)c(OC)c1` [Example 55, 4-(3-Chloro-4-cyano-phenoxy)-3-methoxy-benzoic acid ethyl ester], the IC50 worked out at 300 nM.

`N#Cc1ccc(Oc2ccccc2[N+](=O)[O-])cc1C(F)(F)F` [Example 77, 4-(2-Nitro-phenoxy)-2-trifluoromethyl-benzonitrile]: the IC50 came to 458 nM.

`N#Cc1ccccc1Oc1ccc(C#N)c(C(F)(F)F)c1` [Example 112, 4-(2-Cyano-phenoxy)-2-trifluoromethyl-benzonitrile]: the IC50 came to 315 nM.

For the compound `Cc1ccc(Oc2ccc(C#N)c(Cl)c2)c(Cc2ccccc2)c1` [Example 62, 4-(2-Benzyl-4-methyl-phenoxy)-2-chloro-benzonitrile], the IC50 was found to be 326 nM.

With `N#Cc1ccc(Oc2ccccc2[N+](=O)[O-])c(Cl)c1` [Example 2, 3-Chloro-4-(2-nitro-phenoxy)-benzonitrile], the IC50 came out at 472 nM.

Turning to `COc1cc(C(C)=O)ccc1Oc1ccc(C#N)c(C(F)(F)F)c1` [Example 74, 4-(4-Acetyl-2-methoxy-phenoxy)-2-trifluoromethyl-benzonitrile], the IC50 stood at 1480 nM.

Turning to `COc1ccc(C)cc1Oc1ccc(C#N)cc1Cl` [Example 22, 3-Chloro-4-(2-methoxy-5-methyl-phenoxy)-benzonitrile], the IC50 came out at 491 nM.

As for `CC(=O)c1ccc(Oc2ccc(C#N)c(C(F)(F)F)c2)cc1` [Example 75, 4-(4-Acetyl-phenoxy)-2-trifluoromethyl-benzonitrile], the IC50 turned out to be 443 nM.

As for `CCOc1ccccc1Oc1ccc(C#N)cc1Cl` [Example 71, 3-Chloro-4-(2-ethoxy-phenoxy)-benzonitrile], the IC50 was 299 nM.

As to `Cc1ccc(-c2ccc(Oc3ccc(C#N)c(Cl)c3)c(C)c2)cc1` [Example 58, 2-Chloro-4-(3,4′-dimethyl-biphenyl-4-yloxy)-benzonitrile], the IC50 was determined as 436 nM.

For `N#Cc1ccc(Oc2ccccc2OCc2ccccc2)cc1C(F)(F)F` [Example 92, 4-(2-Benzyloxy-phenoxy)-2-trifluoromethyl-benzonitrile], the IC50 was determined as 361 nM.
